The values below come from patent US20130102499A1, “METHOD FOR DETERMINATION OF ACTIVITY OF MITOCHONDRIAL DNA POLYMERASE OF FALCIPARUM MALARIA, AND METHOD FOR SCREENING FOR ANTI-MALARIA COMPOUND” (OCHANOMIZU UNIVERSITY, priority 2010, published 2013).

One assay relates to various DNA polymerases. The conditions noted are these: reported; binds non-specifically; cited from earlier work.
Assay [1] relates to apicoplast DNA polymerase (POMUPfprex). The conditions noted are these: reported; cited from earlier work.
Assay [2] relates to PFF1225c (C1 fragment), mitochondrial DNA polymerase. In words: DNA polymerase activity measurement of PFF1225c (C1 fragment), sensitivity to inhibitors. Type of assay: biochemical, Plasmodium falciparum. The conditions noted are these: for inhibition action to the DNA polymerase activity: FIG. 12a, FIG. 13a. The method, then: When a ^3H amount taken in a DNA chain is measured with a liquid scintillation counter, the pigment of an iron ion causes quenching and an accurate measurement thus cannot be attained. Quenching is classified into three types such as chemical quenching, oxygen quenching, and coloration quenching, and calculation efficiency of a liquid scintillation counter decreases. The case of ^3H being a soft β ray particularly becomes a problem, and coloration quenching becomes a problem in the case of an iron ion. Thus, gallic acid that forms a complex with iron was used and gallic acid iron that is a purple complex was formed. […] The protocol in the case of adding an iron ion is shown below.
In order to prevent oxidation of iron, the reaction solution was exposed to a nitrogen gas for 30 minutes to be degassed.
The reaction solution obtained by adding 50 mM Tris-HCl (pH 7.5), 1 mM dTTP, 40 nM PolydA-dT12, and 10 mM FeCl2 and adjusted to be the total amount of 20 μl with degassed distilled water (DW). […] After the incubation, an iron ion was chelated by adding 10 μl of 100 mM EDTA to terminate the reaction. PicoGreen™ (Molecular Probes), which specifically binds to double-stranded DNA, was used in order to quantitatively determine an amount of DNA synthesized by the DNA polymerase.

The subject of assay [3] is DNA polymerase γ-like enzyme. As to conditions: Non-patent Document 5; cited from earlier work.
The target in assay [4] is T1, DNA polymerase γ (Homo sapiens, UniProt P54098).
T1 sequence (P54098 1-1239): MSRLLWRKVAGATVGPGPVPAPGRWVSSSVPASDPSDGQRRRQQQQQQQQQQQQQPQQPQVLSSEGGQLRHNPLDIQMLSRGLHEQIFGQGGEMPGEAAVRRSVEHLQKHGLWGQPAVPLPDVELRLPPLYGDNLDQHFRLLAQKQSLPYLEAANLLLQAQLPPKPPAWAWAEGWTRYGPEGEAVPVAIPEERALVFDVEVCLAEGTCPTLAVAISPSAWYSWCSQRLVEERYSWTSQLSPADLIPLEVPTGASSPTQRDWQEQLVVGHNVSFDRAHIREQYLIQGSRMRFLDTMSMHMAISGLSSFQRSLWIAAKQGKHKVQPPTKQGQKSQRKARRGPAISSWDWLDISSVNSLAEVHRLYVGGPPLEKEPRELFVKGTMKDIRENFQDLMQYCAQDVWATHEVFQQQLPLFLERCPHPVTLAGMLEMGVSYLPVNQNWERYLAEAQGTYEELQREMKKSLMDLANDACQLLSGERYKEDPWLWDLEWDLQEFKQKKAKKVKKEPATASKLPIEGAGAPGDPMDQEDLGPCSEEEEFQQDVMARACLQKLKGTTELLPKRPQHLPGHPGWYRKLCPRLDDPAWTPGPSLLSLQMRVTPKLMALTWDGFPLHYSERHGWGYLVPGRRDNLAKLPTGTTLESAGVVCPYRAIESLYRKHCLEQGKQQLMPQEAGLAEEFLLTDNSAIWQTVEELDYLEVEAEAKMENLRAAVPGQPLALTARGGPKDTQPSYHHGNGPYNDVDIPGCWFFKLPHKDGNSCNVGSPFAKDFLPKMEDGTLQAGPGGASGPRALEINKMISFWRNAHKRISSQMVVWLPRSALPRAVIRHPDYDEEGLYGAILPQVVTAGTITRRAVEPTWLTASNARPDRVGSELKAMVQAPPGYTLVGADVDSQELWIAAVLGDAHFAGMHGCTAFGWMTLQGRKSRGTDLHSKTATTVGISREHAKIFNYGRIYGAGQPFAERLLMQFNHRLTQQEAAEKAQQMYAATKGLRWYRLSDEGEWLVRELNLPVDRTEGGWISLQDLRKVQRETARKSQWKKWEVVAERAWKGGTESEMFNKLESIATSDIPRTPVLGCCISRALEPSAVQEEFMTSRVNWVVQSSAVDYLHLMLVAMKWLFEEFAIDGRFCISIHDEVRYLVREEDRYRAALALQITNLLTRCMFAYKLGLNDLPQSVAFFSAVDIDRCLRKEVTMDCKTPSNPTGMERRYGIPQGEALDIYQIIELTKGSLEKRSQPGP
The conditions noted are these: at a concentration from 50 to 100 mM; reported; cited from earlier work.

In assay [5] the target is T2, DNA polymerase γ (Mus musculus, UniProt P54099).
T2 sequence (P54099 1-1218): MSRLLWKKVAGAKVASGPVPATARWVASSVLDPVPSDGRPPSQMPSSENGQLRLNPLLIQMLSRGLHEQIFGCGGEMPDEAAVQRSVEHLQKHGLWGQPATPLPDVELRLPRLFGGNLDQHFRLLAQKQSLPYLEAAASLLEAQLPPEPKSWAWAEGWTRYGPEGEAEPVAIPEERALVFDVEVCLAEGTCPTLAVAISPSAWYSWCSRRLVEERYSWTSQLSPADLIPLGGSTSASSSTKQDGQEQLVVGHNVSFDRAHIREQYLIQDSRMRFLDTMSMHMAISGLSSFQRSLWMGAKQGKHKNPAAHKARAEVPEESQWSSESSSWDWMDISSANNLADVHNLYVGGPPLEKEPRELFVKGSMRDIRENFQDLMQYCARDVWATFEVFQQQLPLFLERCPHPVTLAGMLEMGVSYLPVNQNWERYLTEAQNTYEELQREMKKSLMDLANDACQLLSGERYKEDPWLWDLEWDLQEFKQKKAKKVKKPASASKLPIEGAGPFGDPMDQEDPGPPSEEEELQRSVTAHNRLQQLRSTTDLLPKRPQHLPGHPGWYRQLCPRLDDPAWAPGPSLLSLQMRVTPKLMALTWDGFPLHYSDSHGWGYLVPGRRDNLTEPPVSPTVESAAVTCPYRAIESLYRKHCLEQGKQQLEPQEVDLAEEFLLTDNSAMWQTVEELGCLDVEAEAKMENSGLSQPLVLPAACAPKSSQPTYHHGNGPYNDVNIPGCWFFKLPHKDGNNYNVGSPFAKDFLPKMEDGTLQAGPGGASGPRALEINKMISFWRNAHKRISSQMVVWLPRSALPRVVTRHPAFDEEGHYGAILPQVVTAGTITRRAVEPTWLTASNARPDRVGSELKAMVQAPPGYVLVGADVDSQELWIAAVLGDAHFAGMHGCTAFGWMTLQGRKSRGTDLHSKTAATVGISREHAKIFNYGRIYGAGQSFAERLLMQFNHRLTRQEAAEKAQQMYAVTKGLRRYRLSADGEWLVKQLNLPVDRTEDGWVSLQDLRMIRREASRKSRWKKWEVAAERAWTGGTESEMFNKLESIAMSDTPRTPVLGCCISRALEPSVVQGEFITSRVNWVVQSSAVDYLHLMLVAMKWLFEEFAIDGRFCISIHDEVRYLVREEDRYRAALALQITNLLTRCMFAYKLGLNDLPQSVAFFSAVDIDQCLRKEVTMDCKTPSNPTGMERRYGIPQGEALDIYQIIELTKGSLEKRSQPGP
The conditions noted are these: already reported; cited from earlier work.

The test system of another assay is PpPolA. As to conditions: FIG. 12b.
Another assay addresses T3, mouse DNA polymerase α (Mus musculus, UniProt P33609).
T3 sequence (P33609 1-1465): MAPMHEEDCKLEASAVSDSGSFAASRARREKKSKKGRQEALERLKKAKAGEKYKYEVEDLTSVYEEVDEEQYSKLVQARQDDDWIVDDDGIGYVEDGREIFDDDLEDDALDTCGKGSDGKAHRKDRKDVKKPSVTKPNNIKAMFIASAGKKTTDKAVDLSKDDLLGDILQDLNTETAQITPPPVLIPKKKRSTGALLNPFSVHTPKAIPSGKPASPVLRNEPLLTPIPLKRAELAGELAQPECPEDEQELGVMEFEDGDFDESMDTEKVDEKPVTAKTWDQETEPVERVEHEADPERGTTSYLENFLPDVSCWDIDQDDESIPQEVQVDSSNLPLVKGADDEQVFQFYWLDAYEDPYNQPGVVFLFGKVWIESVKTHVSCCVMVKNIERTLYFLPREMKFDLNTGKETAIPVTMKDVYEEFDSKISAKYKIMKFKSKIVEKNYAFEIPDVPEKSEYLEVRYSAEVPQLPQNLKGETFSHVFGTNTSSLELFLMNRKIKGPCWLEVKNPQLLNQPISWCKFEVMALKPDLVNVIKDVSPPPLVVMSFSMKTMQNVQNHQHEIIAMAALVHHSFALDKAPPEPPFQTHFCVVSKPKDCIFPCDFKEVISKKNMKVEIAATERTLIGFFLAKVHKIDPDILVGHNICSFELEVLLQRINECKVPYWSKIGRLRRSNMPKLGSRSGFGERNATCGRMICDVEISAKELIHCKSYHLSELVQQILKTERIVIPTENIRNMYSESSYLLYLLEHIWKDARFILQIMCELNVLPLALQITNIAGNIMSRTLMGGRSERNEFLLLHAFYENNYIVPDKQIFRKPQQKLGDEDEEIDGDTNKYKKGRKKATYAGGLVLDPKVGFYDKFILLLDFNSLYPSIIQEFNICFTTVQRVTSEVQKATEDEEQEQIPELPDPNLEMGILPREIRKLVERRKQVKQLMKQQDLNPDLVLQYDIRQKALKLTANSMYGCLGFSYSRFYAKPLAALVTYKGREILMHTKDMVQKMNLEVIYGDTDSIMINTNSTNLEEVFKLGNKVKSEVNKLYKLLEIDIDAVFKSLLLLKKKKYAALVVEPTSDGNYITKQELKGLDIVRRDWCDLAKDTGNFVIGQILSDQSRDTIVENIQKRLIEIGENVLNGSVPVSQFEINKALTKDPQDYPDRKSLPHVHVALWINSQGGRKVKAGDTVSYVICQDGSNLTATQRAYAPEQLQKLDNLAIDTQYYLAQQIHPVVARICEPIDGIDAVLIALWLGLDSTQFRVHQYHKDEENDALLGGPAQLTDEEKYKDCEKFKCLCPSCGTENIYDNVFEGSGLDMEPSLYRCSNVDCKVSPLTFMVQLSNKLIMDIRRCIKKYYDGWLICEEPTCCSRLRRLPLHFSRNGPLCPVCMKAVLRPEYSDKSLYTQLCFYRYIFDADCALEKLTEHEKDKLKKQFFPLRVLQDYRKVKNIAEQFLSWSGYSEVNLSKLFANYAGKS
The conditions noted are these: already reported; cited from earlier work.

The target of assay [6] is T4, human mitochondrial DNA polymerase γ (Homo sapiens, UniProt P54098).
T4 sequence (P54098 1-1239): T1 sequence (P54098 1-1239)
In words: DNA polymerase activity, human mitochondrial DNA polymerase γ. Type of assay: biochemical. The conditions noted are these: FIG. 12c.
Method: 0.1 μg of a C1 fragment was added per 10 μl. The mixed reaction solution was incubated at 37° C. for 30 minutes, then adsorbed to filter paper, dried, and washed with 5% Na2HPO4 4 times (for 10 minutes for each washing), thereafter washing twice with distilled water (DW) (for 5 minutes for each washing), and finally shaken with 100% ethanol for 5 minutes. The filter paper was then dried and the dried filter paper was contained in a vial container charged with 4 ml of a toluene cocktail, and an intake amount of ^3H was measured with a liquid scintillation counter.

Method for PpPolA: A reaction solution was obtained by adding 50 mM Tris-HCl, 0.5 mM dATP, dGTP, dCTP, 5 μM dTTP, activated DNA (0.5 μg/ml), 0.8 μM [^3H]dTTP (Moravek Co.: (MT-781) Thymidine 5′-triphosphate, tetrasodium salt, [methyl ^3H]), and an enzyme solution was further added thereto, a metallic ion, an inhibitor, etc. having respective concentrations (the total amount of 10 μl). 0.1 μg of a C1 fragment was added per 10 μl. The mixed reaction solution was incubated at 37° C. for 30 minutes, then adsorbed to filter paper, dried, and washed with 5% Na2HPO4 4 times (for 10 minutes for each washing), thereafter washing twice with distilled water (DW) (for 5 minutes for each washing), and finally shaken with 100% ethanol for 5 minutes. The filter paper was then dried and the dried filter paper was contained in a vial container charged with 4 ml of a toluene cocktail, and an intake amount of ^3H was measured with a liquid scintillation counter.

For the compound `Cc1ccc(C(=O)Nc2ccc(S(=O)(=O)O)c3cc(S(=O)(=O)O)cc(S(=O)(=O)O)c23)cc1NC(=O)c1cccc(NC(=O)Nc2cccc(C(=O)Nc3cc(C(=O)Nc4ccc(S(=O)(=O)O)c5cc(S(=O)(=O)O)cc(S(=O)(=O)O)c45)ccc3C)c2)c1` [suramin], the “inhibition of DNA polymerase activity” value is “inhibits the activities” in the assay with various DNA polymerases and “inhibitors” in assay [1]. In addition, the “inhibition action to the DNA polymerase activity” value in [2] is “inhibited the activity”.
Turning to `C[C@@]1(CO)[C@H](O)CC[C@@]2(C)[C@H]1CC[C@H]1C[C@@H]3C[C@@]12CC[C@]3(O)CO` [aphidicolin], the “sensitivity or resistance of the enzyme to inhibitor” value in assay [3] is “resistance”. In addition, the “DNA polymerase activity on addition of inhibitor” value in assay [2] (added at a concentration from 10 to 100 μM, FIG. 11b) is “the activity scarcely decreased”.
For the compound `Cc1cn([C@H]2CC[C@@H](COP(=O)(O)OP(=O)(O)OP(=O)(O)O)O2)c(=O)[nH]c1=O` [ddTTP], the “inhibition of DNA polymerase activity” value at DNA polymerase γ [4] is reported as “mostly inhibited”. The “sensitivity or resistance of the enzyme to inhibitor” value in [3] is “resistance”. For the same compound, the “inhibition effect on DNA polymerase activity” value in assay [2] (along with increasing concentration, FIG. 11d) is recorded as “a weak inhibition effect was shown”. Also, the “remaining DNA polymerase activity” value in assay [2] (concentration increased to 400 mM, FIG. 11d) is reported as 50%.
On to `Nc1ncnc2c1ncn2CCOCP(=O)(O)OP(=O)(O)OP(=O)(O)O` [PMEApp], for which the “sensitivity or resistance of the enzyme to inhibitor” value in assay [3] is given as “resistance”.
Take `CCN1C(=O)C=CC1=O` [NEM, N-ethylmaleimide]: the “sensitivity or resistance of the enzyme to inhibitor” value in assay [3] is given as “sensitivity”. For the same compound, the “DNA polymerase activity on addition of inhibitor” value in assay [2] (in the presence at a high concentration, FIG. 11c) is “the activity scarcely decreased”.
For the compound `CCN(CC)CCCC(C)Nc1ccnc2cc(Cl)ccc12` (stereo not drawn) [chloroquine], the “inhibition of DNA polymerase activity” value at DNA polymerase γ [5] is given as “does not inhibit”; in [1], “inhibitors”; on mouse DNA polymerase α it was “does not inhibit”. Further, the “inhibition action to the DNA polymerase activity” value is on record as “an inhibition effect was not shown” in the assay with PpPolA, “an inhibition effect was not shown” in assay [6] and “inhibited the activity” in assay [2].
